In US4596710A, “Gallium chloride as a new anti-cancerous drug” (priority 1981, dated 1986):

What was measured:
[1] = Anghileri 1973; cited from earlier work
[2] = Clinical and biological tolerance in patients; settings: Adriamycine 50 mg + 5-fluoro-uracil 900 mg + Endoxan 900 mg; before gallium chloride; alcoholic patient
Method: Mrs. […] Post-operative chemotherapy (5-fluoro-uracil and endoxan) was then effected up to April 1979. At that time, […] underwent a second operation with excision of the remaining cervix and omentectomy. […] Cobalt therapy was then carried out from Nov. 5th, 1979 to Feb. 5th, 1980 on the abdomen, pelvis and diaphragm cupolas, then further chemotherapy (hexamethylmelamine) from August to October 1980. […] Treatment by gallium chloride started on Nov. 1 st, 1980 at the posology of 300 mg per day per os in three doses of 100 mg. […] An echotomograph on Dec. […] A third echotomograph was made on Jan. […] On Mar.
The treatment by gallium chloride was started on May 15th, 1981, at the posology of 600 mg/24 hours up to Sept. 20th, 1981, in association with a heparinotherapy at mini-doses. This heparinotherapy had been prescribed to prevent a phlebitis or pulmonary embolism following the surgical operation of April 1981 and had not been interrupted in order not to provoke the phenomenon of tumoral flare-up. [Calciparin (heparin calcium salt) 0.2 ml, 3 times per day by sub-cutaneous route]. […] On Sept. […] This was the case. . . […] 29th, 1981. […] Up to Nov. […] It was from Sept.
HOT... […] , was operated on May 14th, 1981 for an adenocarcinoma of the colon. […] An almost total colectomy was carried out, leaving 20 cm of sigmoid and a resection of the small bowel over a length of 15 cm. […] On Oct. […] An exploratory laparotomy was made on Nov. […] 7th, 1982.
Gallium chloride therapy was started on Sept.

[3] = cited from earlier work

| Molecule | pancytopenia after combination chemotherapy, 2nd patient [2] | other results |
| --- | --- | --- |
| gallium | – | displacement of magnesium from the cell [1]: capable of displacing magnesium from the cell |
| COc1cccc2c1C(=O)c1c(O)c3c(c(O)c1C2=O)C[C@@](O)(C(=O)CO)C[C@@H]3O[C@H]1C[C@H](N)[C@H](O)[C@H](C)O1 [Adriamycine, reference compound] | a pancytopenia which would persist for several months | – |
| O=c1[nH]cc(F)c(=O)[nH]1 [5-fluoro-uracil, reference compound] | a pancytopenia which would persist for several months | – |
| O=P1(N(CCCl)CCCl)NCCCO1 (stereo not drawn) [Endoxan, reference compound] | a pancytopenia which would persist for several months | – |
| O=[N+]([O-])[O-].O=[N+]([O-])[O-].O=[N+]([O-])[O-].[Ga+3] [gallium nitrate] | – | renal toxicity ([3]; human therapeutics): excessive renal toxicity; results of tests in human therapeutics ([3]; in vivo): minor results |
